Results reported in patent publication US20050101595A1, “N-containing cycloalkyl-substituted amino-thiazole derivatives and pharmaceutical compositions for inhibiting cell proliferation and methods for their use” (PFIZER INC., priority 2003, published 2005).

Assays:
HCT-116 cell line = test: Inhibition of cell growth, tetrazolium salt (MTT) assay; assay type: cell-based; details: Homo sapiens, MTT; for inhibition at 0.175 µM: HCT-116, HCT-116 cells, compound at 0.175 uM; for IC50: HCT-116, 120 h, first HCT-116 column (c4), three to five days, read-out: HCT-116 IC50
In short: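 McCoy's 5A cultures; 4 h pre-incubation; compound dilutions in 0.5% v/v DMSO; 3–5 d, 37° C, 5% CO2; MTT 0.2 mg/mL final, 4 h; formazan dissolved in DMSO, A540; vs 0.5% DMSO vehicle.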

CDK2/Cyclin A = CDK2/Cyclin A (Homo sapiens, UniProt P24941); test: Inhibition of CDK2/Cyclin A Retinoblastoma Kinase Activity; assay type: biochemical; details: for inhibition at 0.05 µM: read-out: % inhibition of CDK2 (@ 0.05 μM), compound at 0.05 μM; for Ki: apparent Ki, CDK2/proteolyzed cyclin A, Rb fragment substrate, 25 μM ATP
Description: Cyclin-dependent kinase activity was measured by quantifying the enzyme-catalyzed, time-dependent incorporation of radioactive phosphate from [^32P]ATP or [^33P]ATP into a protein substrate. Unless noted otherwise, assays were performed in 96-well plates in a total volume of 50 μL, in the presence of 10 mM HEPES (N-[2-hydroxyethyl]piperazine-N′-[2-ethanesulfonic acid]) (pH 7.4), 10 mM MgCl2, 25 μM adenosine triphosphate (ATP), 1 mg/mL ovalbumin, 5 μg/mL leupeptin, 1 mM dithiothreitol, 10 mM β-glycerophosphate, 0.1 mM sodium vanadate, 1 mM sodium fluoride, 2.5 mM ethylene glycol-bis(β-aminoethyl ether)-N,N,N′N′-tetraacetic acid (EGTA), 2% (v/v) dimethylsulfoxide, and 0.03-0.4 μCi [^32/33P]ATP per reaction. Reactions were initiated with enzyme, incubated at 30° C., and terminated after 20 minutes by the addition of ethylenediaminetetraacetic acid (EDTA) to 250 mM. The phosphorylated substrate was then captured on a nitrocellulose or phosphocellulose membrane using a 96-well filtration manifold, and unincorporated radioactivity was removed by repeated washing with 0.85% phosphoric acid. Radioactivity was quantified by exposing the dried membranes to a phosphorimager.
Inhibition was measured relative to control wells that contained all reaction components including 2% (v/v) DMSO but no compound, after subtraction of background radioactivity measured in the absence of enzyme. Apparent Ki values of discrete compounds were measured by assaying enzyme activity in the presence of different inhibitor compound concentrations and subtracting the background radioactivity measured in the absence of enzyme. The kinetic parameters (kcat, Km for ATP) were measured for each enzyme under the usual assay conditions by determining the dependence of initial rates on ATP concentration. Inhibition data were fit to an equation for competitive inhibition using Kaleidagraph (Synergy Software), or were fit to an equation for competitive tight-binding inhibition using the software KineTic (BioKin, Ltd.).
Inhibition of CDK2/Cyclin A Retinoblastoma Kinase Activity:
CDK2 was purified using published methodology (Rosenblatt et al., “Purification and Crystallization of Human Cyclin-dependent Kinase 2,” J. Mol. Biol., vol. 230, 1993, pp. 1317-1319) from insect cells that had been infected with a baculovirus expression vector. […] A complex of CDK2 and proteolyzed cyclin A was prepared and purified by gel filtration. The substrate for this assay was the same Rb substrate fragment used for the CDK4 assays, and the methodology of the CDK2/delta cyclin A and the CDK4/delta cyclin D3 assays was essentially the same, except that CDK2 was present at 10 nM or 19 nM. The duration of the assay was 60 or 75 minutes, during which the time-dependence of product formation was linear and initial rate conditions were met. And, the percent inhibitions of the compounds of Example O through Example R were calculated as described above and shown in Table 2.

SMILES	inhibition at 0.175 µM (HCT-116 cell line) [%]	inhibition at 0.05 µM (CDK2/Cyclin A) [%]	IC50 (HCT-116 cell line) [nM]	Ki (CDK2/Cyclin A) [nM]
Nc1nc(NC2CCN(S(=O)(=O)CCCNCc3ccccc3)CC2)sc1C(=O)c1c(F)cccc1F [Example V12]	69	93	–	–
CN(CCCS(=O)(=O)N1CCC(Nc2nc(N)c(C(=O)c3c(F)cccc3F)s2)CC1)Cc1ccco1 [Example V179, (4-Amino-2-{[1-({3-[(2-furylmethyl)(methyl)amino]propyl}sulfonyl)-4-piperidinyl]amino}-1,3-thiazol-5-yl)(2,6-difluorophenyl)methanone.]	–	–	170	11
CN(CCCS(=O)(=O)N1CCC(Nc2nc(N)c(C(=O)c3c(F)cccc3F)s2)CC1)CC(O)CO (stereo not shown) [Example V124]	9	80	–	–
Nc1nc(NC2CCN(S(=O)(=O)CCCNCCc3ncn[nH]3)CC2)sc1C(=O)c1c(F)cccc1F [Example V150]	18	87	–	–
COC1CCN(CCCS(=O)(=O)N2CCC(Nc3nc(N)c(C(=O)c4c(F)cccc4F)s3)CC2)CC1 [Example V171]	65	81	–	–
Cc1cnc(CNCCCS(=O)(=O)N2CCC(Nc3nc(N)c(C(=O)c4c(F)cccc4F)s3)CC2)cn1 [Example V43]	17	81	–	–
COCCCNCCCS(=O)(=O)N1CCC(Nc2nc(N)c(C(=O)c3c(F)cccc3F)s2)CC1 [Example V40]	0	80	–	–
CC1=NNC(=O)C1CNCCCS(=O)(=O)N1CCC(Nc2nc(N)c(C(=O)c3c(F)cccc3F)s2)CC1 (stereo not shown) [Example V172]	11	81	–	–
Nc1nc(NC2CCN(S(=O)(=O)CCCN3CCCC3)CC2)sc1C(=O)c1c(F)cccc1F [Example V64]	0	17	–	–
CC1CN(CCCS(=O)(=O)N2CCC(Nc3nc(N)c(C(=O)c4c(F)cccc4F)s3)CC2)CC(C)O1 (stereo not shown) [Example V31]	48	83	–	–
Nc1nc(NC2CCN(S(=O)(=O)CCCNCCCCO)CC2)sc1C(=O)c1c(F)cccc1F [Example V90]	21	79	–	–
Nc1nc(NC2CCN(S(=O)(=O)CCCNCc3ccc(F)cc3)CC2)sc1C(=O)c1c(F)cccc1F [Example V52]	65	92	–	–
Nc1nc(NC2CCN(S(=O)(=O)CCCN3CCC(O)C3)CC2)sc1C(=O)c1c(F)cccc1F (stereo not shown) [Example V68]	10	85	–	–
COC1CCN(CCCS(=O)(=O)N2CCC(Nc3nc(N)c(C(=O)c4c(F)cccc4F)s3)CC2)CC1 [Example K59, {4-Amino-2-[(1-{[3-(4-methoxypiperidin-1-yl)propyl]sulfonyl}piperidin-4-yl)amino]-1,3-thiazol-5-yl}(2,6-difluorophenyl)methanone]	–	–	270	11
CN(C)CCNCCCS(=O)(=O)N1CCC(Nc2nc(N)c(C(=O)c3c(F)cccc3F)s2)CC1 [Example V54]	0	75	–	–
Nc1ccc(CNCCCS(=O)(=O)N2CCC(Nc3nc(N)c(C(=O)c4c(F)cccc4F)s3)CC2)cc1 [Example V47]	13	85	–	–
Nc1nc(NC2CCN(S(=O)(=O)CCCNCCc3cccs3)CC2)sc1C(=O)c1c(F)cccc1F [Example V76]	44	89	–	–
CN(C)CCCN(C)CCCS(=O)(=O)N1CCC(Nc2nc(N)c(C(=O)c3c(F)cccc3F)s2)CC1 [Example V32]	11	78	–	–
CCN(CC)CCCS(=O)(=O)N1CCC(Nc2nc(N)c(C(=O)c3c(F)cccc3F)s2)CC1 [Example V57]	33	77	–	–

SMILES	inhibition at 0.175 µM (HCT-116 cell line) [%]	inhibition at 0.05 µM (CDK2/Cyclin A) [%]	IC50 (HCT-116 cell line) [nM]	Ki (CDK2/Cyclin A) [nM]
Nc1nc(NC2CCN(S(=O)(=O)CCCN[C@@H]3CCCC[C@@H]3CO)CC2)sc1C(=O)c1c(F)cccc1F [Example V71]	5	85	–	–
Nc1nc(NC2CCN(S(=O)(=O)CCCN3CCSC3)CC2)sc1C(=O)c1c(F)cccc1F [Example V101]	22	80	–	–
CC(C)CCNCCCS(=O)(=O)N1CCC(Nc2nc(N)c(C(=O)c3c(F)cccc3F)s2)CC1 [Example V60]	18	84	–	–
Nc1nc(NC2CCN(S(=O)(=O)CCCNCC(O)CO)CC2)sc1C(=O)c1c(F)cccc1F (stereo not shown) [Example V48]	7	79	–	–
Cc1cccc(CNCCCS(=O)(=O)N2CCC(Nc3nc(N)c(C(=O)c4c(F)cccc4F)s3)CC2)c1 [Example V79]	76	93	–	–
NC(=O)C1CCN(CCCS(=O)(=O)N2CCC(Nc3nc(N)c(C(=O)c4c(F)cccc4F)s3)CC2)CC1 [Example V45]	25	83	–	–
CCCCN(CC#N)CCCS(=O)(=O)N1CCC(Nc2nc(N)c(C(=O)c3c(F)cccc3F)s2)CC1 [Example V119]	0	75	–	–
Nc1nc(NC2CCN(S(=O)(=O)CCCNc3cc(O)c4ccccc4n3)CC2)sc1C(=O)c1c(F)cccc1F [Example V140]	0	93	–	–
Cc1ccccc1CNCCCS(=O)(=O)N1CCC(Nc2nc(N)c(C(=O)c3c(F)cccc3F)s2)CC1 [Example V27]	86	93	–	–
Nc1nc(NC2CCN(S(=O)(=O)CCCNC3CCCCC3)CC2)sc1C(=O)c1c(F)cccc1F [Example V72]	14	90	–	–
CC1CCN(CCCS(=O)(=O)N2CCC(Nc3nc(N)c(C(=O)c4c(F)cccc4F)s3)CC2)CC1 [Example K58, {4-Amino-2-[(1-{[3-(4-methylpiperidin-1-yl)propyl]sulfonyl}piperidin-4-yl)amino]-1,3-thiazol-5-yl}(2,6-difluorophenyl)methanone]	–	–	150	11
CN(C)CCCCNCCCS(=O)(=O)N1CCC(Nc2nc(N)c(C(=O)c3c(F)cccc3F)s2)CC1 [Example V154]	15	82	–	–
N#CCCNCCCS(=O)(=O)N1CCC(Nc2nc(N)c(C(=O)c3c(F)cccc3F)s2)CC1 [Example V92]	9	81	–	–
CN(C)C1CCN(CCCS(=O)(=O)N2CCC(Nc3nc(N)c(C(=O)c4c(F)cccc4F)s3)CC2)CC1 [Example V22]	13	67	–	–
CCCCNCCCS(=O)(=O)N1CCC(Nc2nc(N)c(C(=O)c3c(F)cccc3F)s2)CC1 [Example V85]	29	82	–	–
Nc1nc(NC2CCN(S(=O)(=O)CCCN[C@@H]3CONC3=O)CC2)sc1C(=O)c1c(F)cccc1F [Example V21]	10	86	–	–
CC(=O)NCCNCCCS(=O)(=O)N1CCC(Nc2nc(N)c(C(=O)c3c(F)cccc3F)s2)CC1 [Example V19]	13	59	–	–
CCc1ccnc(NCCCS(=O)(=O)N2CCC(Nc3nc(N)c(C(=O)c4c(F)cccc4F)s3)CC2)c1 [Example V111]	5	86	–	–
CC(C)OCCCNCCCS(=O)(=O)N1CCC(Nc2nc(N)c(C(=O)c3c(F)cccc3F)s2)CC1 [Example V96]	10	84	–	–
